Results on two compounds are retold here after patent US20240300904A1, “PYRIDAZINONES FOR THE TREATMENT OR PREVENTION OF HYPERTENSION” (UNIVERSITETET I OSLO, priority 2021, published 2024).

In one data set the target is T1, β1-adrenergic receptor (Homo sapiens, UniProt P08588).
T1 construct: purchased Discover X/Eurofins SafetyScan E/IC50 ELECT
Nature of the data set: Safety pharmacology panel (SafetyScan E/IC50 ELECT). It is filed as cell-based. The conditions noted are these: minor activity; 78-target panel.

Another data set has as its system HeLa cells. Nature of the data set: MTT assay (cytotoxicity). It is filed as cell-based. The settings on record: 24 and 48 h, compared with compounds 3 and 11. As for the experimental part:
Cells were incubated for 24 and 48 h with increasing concentrations of the indicated compound. The data represent formazan formation (absorbance) as a percentage of the negative control (1% DMSO).
The MTT (3-(4,5-dimethylthiazol-2-yl)-2,5-diphenyltetrazolium bromide) tetrazolium reduction assay was used to measure cytotoxicity of the compounds in vitro. Viable cells with active metabolism convert MTT into a purple colored formazan product with an absorbance maximum near 570 nm. HeLa cells were plated in 96-well plates in culture medium (DMEM (Dulbecco's Modified Eagle's Medium, Gibco®, ThermoFischer Scientific) supplemented with 10% Fetal Bovine Serum (FBS), 100 U/ml penicillin, 0.1 mg/ml streptomycin) the day before experiments. Cells were incubated for 24 or 48 h at 37° C. with increasing concentrations of each compound (in 1% DMSO). 1% DMSO and 20 mM H2O2 in culture medium were used as negative and positive control, respectively. MTT solution at a final concentration of 0.45 mg/ml was added to the wells and cells incubated for 1 to 4 hours at 37° C. Solubilization solution (40% (vol/vol) dimethylformamide (DMF), 2% (vol/vol) glacial acetic acid and 16% (wt/vol) sodium dodecyl sulfate (SDS)) was added to each well to dissolve formazan crystals. Absorbance was measured at 570 nm.
For orientation: Tetrazolium assays rely on reduction of a dye to a coloured formazan, in cell work by metabolically active cells.

The target of another data set is T2, dopamine D1-receptor (Homo sapiens, UniProt P21728).
T2 construct: purchased Discover X/Eurofins SafetyScan E/IC50 ELECT
T2 sequence (P21728 whole entry): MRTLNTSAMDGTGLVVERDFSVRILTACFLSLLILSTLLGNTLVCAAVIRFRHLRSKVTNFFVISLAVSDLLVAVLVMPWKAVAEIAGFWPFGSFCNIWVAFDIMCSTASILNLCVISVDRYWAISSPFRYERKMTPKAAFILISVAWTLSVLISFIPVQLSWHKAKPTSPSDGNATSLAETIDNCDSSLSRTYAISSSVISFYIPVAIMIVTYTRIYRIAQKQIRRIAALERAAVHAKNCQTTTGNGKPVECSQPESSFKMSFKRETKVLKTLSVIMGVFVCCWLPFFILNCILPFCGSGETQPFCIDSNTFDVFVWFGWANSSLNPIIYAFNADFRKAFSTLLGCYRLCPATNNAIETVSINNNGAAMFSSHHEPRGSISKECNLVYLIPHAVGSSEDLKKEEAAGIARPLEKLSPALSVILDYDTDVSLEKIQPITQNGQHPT
Nature of the data set: Safety pharmacology panel (SafetyScan E/IC50 ELECT). It is filed as cell-based. The conditions noted are these: minor activity; 78-target panel.

The target of the next data set is T3, β2-adrenergic receptor (Homo sapiens, UniProt P07550).
T3 construct: purchased Discover X/Eurofins SafetyScan E/IC50 ELECT
T3 sequence (P07550 whole entry): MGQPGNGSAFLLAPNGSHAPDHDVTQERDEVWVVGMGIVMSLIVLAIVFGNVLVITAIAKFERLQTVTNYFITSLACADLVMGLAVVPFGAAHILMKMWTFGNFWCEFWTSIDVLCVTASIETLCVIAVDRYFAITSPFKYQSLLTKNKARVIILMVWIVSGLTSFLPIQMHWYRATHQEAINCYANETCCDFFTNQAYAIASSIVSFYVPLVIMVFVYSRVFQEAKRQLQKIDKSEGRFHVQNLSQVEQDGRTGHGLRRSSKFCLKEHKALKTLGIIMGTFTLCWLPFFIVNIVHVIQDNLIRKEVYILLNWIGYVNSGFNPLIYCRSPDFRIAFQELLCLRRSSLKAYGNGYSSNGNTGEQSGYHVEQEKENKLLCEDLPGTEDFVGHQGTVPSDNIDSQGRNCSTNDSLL
Described as above. The conditions noted are these: minor activity; 78-target panel. It is filed as cell-based.

Data set [1] has as its target T4, human (h) natriuretic peptide receptor A (hNPR-A) (Homo sapiens, UniProt P16066).
T4 construct: expressed in transfected cells
T4 sequence (P16066 33-1061): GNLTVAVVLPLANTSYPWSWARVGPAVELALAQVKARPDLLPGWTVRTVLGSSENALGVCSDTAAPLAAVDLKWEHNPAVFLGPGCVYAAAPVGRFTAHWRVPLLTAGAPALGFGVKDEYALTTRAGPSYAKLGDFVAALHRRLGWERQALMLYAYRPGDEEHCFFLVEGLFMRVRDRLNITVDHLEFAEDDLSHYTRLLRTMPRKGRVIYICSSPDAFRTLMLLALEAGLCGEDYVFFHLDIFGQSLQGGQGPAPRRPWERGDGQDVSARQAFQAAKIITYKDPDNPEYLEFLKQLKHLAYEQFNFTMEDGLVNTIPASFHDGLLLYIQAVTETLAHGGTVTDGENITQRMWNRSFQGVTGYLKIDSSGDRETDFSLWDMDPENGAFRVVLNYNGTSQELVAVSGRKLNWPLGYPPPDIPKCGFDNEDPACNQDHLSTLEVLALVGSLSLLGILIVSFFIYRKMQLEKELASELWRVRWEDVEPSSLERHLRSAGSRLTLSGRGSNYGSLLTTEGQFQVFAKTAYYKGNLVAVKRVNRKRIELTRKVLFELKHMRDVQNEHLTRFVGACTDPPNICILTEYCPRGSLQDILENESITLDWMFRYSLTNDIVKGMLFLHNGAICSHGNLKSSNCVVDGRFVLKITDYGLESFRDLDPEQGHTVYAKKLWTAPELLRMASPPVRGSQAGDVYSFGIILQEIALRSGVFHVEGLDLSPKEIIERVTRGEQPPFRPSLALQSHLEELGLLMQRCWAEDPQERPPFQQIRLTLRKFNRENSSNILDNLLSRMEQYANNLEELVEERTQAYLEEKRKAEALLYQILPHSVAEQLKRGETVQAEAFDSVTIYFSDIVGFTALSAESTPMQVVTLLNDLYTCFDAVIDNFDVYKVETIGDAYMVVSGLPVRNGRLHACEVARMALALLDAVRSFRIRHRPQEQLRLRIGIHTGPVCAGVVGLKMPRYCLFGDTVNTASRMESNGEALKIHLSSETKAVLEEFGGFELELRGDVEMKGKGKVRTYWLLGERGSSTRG
T4 sequence (P16860 103-134 partner limits assumed): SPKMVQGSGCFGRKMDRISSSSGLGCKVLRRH
The experiment in a line: AlphaScreen assay for cGMP: BNP-mediated NPR-A activity (cGMP production). It is filed as cell-based. The settings on record: conc. response of compound + 0.1 nM BNP. On the procedure:
QBIHEK293A cells stably transfected with human (h) natriuretic peptide receptor A (hNPR-A) and hNPR-B were made as described in Bach et al., Naunyn Schmiedebergs Arch. Pharmacol. 2014; 387:5-14. Cells were grown in DMEM (Dulbecco's Modified Eagle's Medium, Gibco®, ThermoFischer Scientific) supplemented with 10% Fetal Bovine Serum (FBS), 100 U/ml penicillin, 0.1 mg/ml streptomycin, and 0.4 mg/ml G418 (geneticin) as selection antibiotic.
The AlphaScreen assay for cGMP (Perkin Elmer) was performed as described in Bach et al. (see above). NPR-A and NPR-B expressing HEK293 cells were split the day before the experiment and harvested using an EDTA solution (Versene, Invitrogen, ThermoFischer Scientific). A final concentration of 6000 cells/well was re-suspended in stimulation buffer (5 mM HEPES in HBSS at pH 7.4, 0.1% BSA) with IBMX (0.7 mM final). Compounds were dissolved in stimulation buffer and added to wells in increasing concentrations. Cells were incubated with the indicated compounds 20 minutes before addition of agonists (human BNP, human CNP or human proBNP) in various concentrations. Cells were stimulated for 20 minutes with agonist before the reactions were stopped (i.e. cells lysed) by adding the AlphaScreen Acceptor bead mix (Acceptor beads-anti-cGMP antibody and 0.5% Tween-20 in 5 mM HEPES buffer at pH 7.4). After 1 hour incubation, the Donor bead mix (Donor beads, biotinylated cGMP, 0.5% Tween-20 in 5 mM HEPES buffer at pH 7.4) was added (40 μl total volume) and incubation continued for 2 hours. The luminescence signals were analyzed quantitatively by reading of the plates on the EnVision® Multilabel Plate Reader (Perkin Elmer) using AlphaScreen emission 570 nm filter.
For orientation: Bead proximity is the source of the signal in Alpha formats.

A short description of data set [2]: Cytotoxicity screening (Cyprotex Discovery Ltd.). The data set is classed as cell-based.
For another data set, the system named is rat aortic rings. Nature of the data set: Vasorelaxation: ANP-mediated relaxation of rat aortic rings. The conditions noted are these: conc. response of ANP in the absence (ANP) or presence of 10 μM compound, L-NAME present. On the procedure:
Male Sprague-Dawley (6-8 weeks old) rats were killed by cervical dislocation. The thoracic aorta was dissected and rings (˜4 mm length) mounted in organ baths containing physiological salt solution (PSS; composition in mM: NaCl 119, KCl 4.7, CaCl2 2.5, MgSO4 1.2, NaHCO3 25, KH2PO4 1.2, and glucose 5.5), maintained at 37° C. and gassed with 5% CO2 in O2. Changes in isometric tension were measured in the tissues under a basal tension of 1 g. After equilibration, vessels were repeatedly contracted with KCl (48 mM) until responses were reproducible. A cumulative concentration-response curve was then constructed to the thromboxane receptor agonist 9,11-dideoxy-11α,9α-epoxymethano-prostaglandin F2α (U46619; 10 nm-1 μM). Arteries were then treated with the nitric oxide synthase (NOS) inhibitor L-NG-nitroarginine methyl ester (300 μM; to block the production of endogenous nitric oxide) and pre-contracted with an EC80 concentration of U46619. Once a stable response was achieved, cumulative concentration-response curves were constructed to ANP (0.001-1 μM) in the absence or presence of Compound 1 or Compound 2 (all 10 μM, incubated for 30 min prior to the administration of ANP).

Where only a bound is given, the exact number is not on record here.

T1 sequence (P08588 whole entry): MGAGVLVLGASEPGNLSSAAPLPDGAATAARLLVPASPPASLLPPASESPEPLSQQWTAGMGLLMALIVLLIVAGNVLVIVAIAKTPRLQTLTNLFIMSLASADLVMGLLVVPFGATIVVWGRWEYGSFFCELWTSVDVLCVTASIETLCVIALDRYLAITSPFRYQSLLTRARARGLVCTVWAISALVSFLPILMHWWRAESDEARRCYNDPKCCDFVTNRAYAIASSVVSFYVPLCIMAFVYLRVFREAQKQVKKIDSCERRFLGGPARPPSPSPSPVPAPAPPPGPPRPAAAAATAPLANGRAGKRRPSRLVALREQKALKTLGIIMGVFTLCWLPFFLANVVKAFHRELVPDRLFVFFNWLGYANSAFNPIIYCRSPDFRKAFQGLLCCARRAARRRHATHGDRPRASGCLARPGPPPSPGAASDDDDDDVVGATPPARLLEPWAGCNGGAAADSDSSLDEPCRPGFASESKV

`O=C(Cn1nccc(Cl)c1=O)c1ccc(Cl)cc1Cl` [Compound 24, 4-chloro-2-(2-(2,4-dichlorophenyl)-2-oxoethyl) pyridazin-3(2H)-one]: the IC50 on β1-adrenergic receptor, against dopamine D1-receptor and against β2-adrenergic receptor was more than 6 µM in each case. For the same compound, the “toxicity in MTT assay relative to corresponding dichloro compounds” value in the data set with HeLa cells was “lower toxicity”. In addition, in data set [1] (NPR-A-expressing HEK293 cells, read-out: -LogEC50 (compound) (converted)), the EC50 is 200 nM. Moreover, in data set [1] (percentage of maximum BNP-mediated cGMP production, read-out: Max Response), the Emax was 37.8%. For the same compound, the “non-cytotoxic concentration relative to EC50 at the target” value in data set [2] (15 μM versus EC50 of compound 24 at the target) is on record as 70-80 fold. For the same compound, the “cytotoxic effects (cell count, nuclear size, DNA structure, cell membrane permeability, mitochondrial mass, mitochondrial membrane potential, cytochrome c)” value in data set [2] (at concentrations below 15 μM) is recorded as “did not show any cytotoxic effects”.

Turning to “ANP: atrial natriuretic peptide, endogenous NPR-A agonist used in vasorelaxation”, the “-LogEC50 (ANP)” value in the data set with rat aortic rings stood at 8.3.
